{
  "source": "patent US20230172897A1",
  "about": "“METHODS OF TREATING BREAST CANCERS WITH SELECTIVE ANDROGEN RECEPTOR MODULATORS AND ADDITIONAL THERAPEUTIC AGENTS” (VERU, INC., priority 2021, published 2023)",
  "key": {"[1]": {"system": "MDA-MB-231 triple negative breast cancer cells", "assay": "SRB cell viability, MDA-MB-231 cells infected with adenovirus containing LacZ or AR", "format": "cell-based", "method": "The SRB assay was used to determine cell number during cytotoxocity experiments. The following protocol was used: • 1. Cells were detached with 0.25% trypsin. • 2. Experimental cultures were cultured in 96-well microtiter plates (200 uL growth medium per well; 1,000-200,000 cells per well). • 3. Cultures were fixed with 50 uL 50% TCA (4° C.). (see cell fixation protocol for details). • 4. Fixed cells were stained with 50 uL 0.4% (wt/vol) SRB in 1% acetic acid for 10 minutes. • 5. SRB was removed and the cultures were quickly* rinsed 5 times with 1% acetic acid to remove unbound dye.** • 6. Cultures were air-dried overnight until there was no visible moisture. • 7. The cellular protein-bound SRB was dissolved with 200 uL unbuffered Tris base (10 mM, pH 10.5) for 30 minutes on a rocking platform shaker. • 8. Absorbance was read at 540 nm. * quickly performing rinsing process was to prevent desorption of protein-bound SRB ** completely removed residual wash solution by sharply flicking plates over sink.\nThe following protocol was used for fixing cells: • a. 50 uL of 50% TCA (4° C.) was gently layered on the top of growth medium in each well to make a final TCA concentration of 10%. • b. Cultures were incubated at 4° C. for 1 hour. • c. Cultures were washed 5 times with tap water to remove TCA, growth medium, low-molecular-weight metabolites, and serum protein. • d. Plates were air-dried until there was no visible moisture.\nCells were treated in charcoal stripped FBS (FIGS. 4A, 4C, 4E, 4G, 4I, 4K, 4M and 4O) or full serum (FIGS. 4B, 4D, 4F, 4H, 4J, 4L, 4N and 4P) for 3 days, fixed and stained with […] (SRB) to measure cell viability. Anti-proliferative IC50 values were calculated in breast cancer cells and compared to transactivation values, i.e., EC50 (agonists) and IC50 (antagonists) values, generated in HEK-293 cells."}, "[2]": {"system": "ZR-75-1 breast cancer cells", "assay": "Growth assay, cell count", "format": "cell-based", "conditions": "6 days", "method": "Cells were plated at varying densities in growth medium in 96 well plates. Cells were treated as indicated in the figures and viability measured using sulforhodamine B (SRB) or the number of cells counted using Coulter counter.\nAlthough a few previous reports have shown that MCF-7 cells express AR and respond to AR ligands (Buchanan et al. (2005) Cancer Res 65, 8487-8496), the MCF-7 cell line clone in the study lacks or minimally expresses AR, which is in concordance with other reports (De Amicis et al. (2010) Breast Cancer Res Treat 121, 1-11)."}, "[3]": {"system": "ER-positive metastatic breast cancer", "assay": "Phase 2 clinical trial (G200801), 9 mg daily", "format": "in vivo, women", "method": "The goal of this study was to determine the importance of the AR status as a therapeutic target in women with ER-positive metastatic breast cancer (MBC) that had previously responded to hormone therapy. The treatment was continued until disease progression (PD).\nCBR will be correlated with AR status of metastatic tumor biopsy.\nSerum prostate specific antigen (PSA) was evaluated as a biomarker of AR activity.\nFemale subjects with ER-positive metastatic breast cancer who have previously been treated with up to 3 prior hormonal therapies for the treatment of breast cancer. Subjects must have been treated with and responded to previous adjuvant therapy for ≥3 years or hormonal therapy for metastatic disease for >6 months prior to progression. Details of subject selection criteria are presented below:\nMeasurable and non-measurable lesions (primary and/or metastatic) were identified and assessed by a modified Response Evaluation Criteria In Solid Tumors (RECIST 1.1) classification over the course of this study (described in detail below).\nThe primary efficacy analysis was the clinical benefit in subjects with AR-positive breast cancer at 6 months as measured by a modified Response Evaluation Criteria In Solid Tumors (RECIST 1.1) classification. Key secondary endpoints of clinical benefit in all subjects and AR-negative subjects, as well as objective response rate, progression free survival, time to progression, duration of response, incidence of SREs, and time to first SRE in subsets based on AR status (i.e., all subjects, AR-positive subjects, and AR-negative subjects) was also assessed. Effects on CA 27-29, PSA, bone turnover markers, QOL, and libido were assessed as tertiary endpoints.\nClinical benefit in a subject is defined as a complete response [CR], a partial response [PR] or stable disease [SD] as measured by modified RECIST 1.1, which is described in detail below. (Eisenhauer E A et al. New response evaluation criteria in solid tumors: revised RECIST guideline (version 1.1). European Journal of Cancer 45:228-247, 2009)."}, "[4]": {"conditions": "9 mg daily, individual patients"}},
  "note": "Where “and” joins values, the source holds several entries; their conditions need not be identical. Identical values can stand only once.",
  "data": [
    {"smiles": "C[C@](O)(COc1ccc(C#N)cc1)C(=O)Nc1ccc(C#N)c(C(F)(F)F)c1", "note": "[Formula IX, (S)—N-(4-Cyano-3-(trifluoromethyl)phenyl)-3-(4-cyanophenoxy)-2-hydroxy-2-methylpropanamide]", "values": [
      {"measurement": "growth inhibitory effect on MDA-MB-231 cells in the presence of bicalutamide", "setting": "[1]; AR cells, 10 μM bicalutamide", "value": "weakened growth inhibitory effects"},
      {"measurement": "MDA-MB-231 cell growth", "setting": "[1]; cells with AR, 3 days", "value": "inhibited"},
      {"measurement": "proliferation of ZR-75-1 cells", "setting": "[2]", "value": "significantly reduced dose dependently"},
      {"measurement": "CR or PR", "setting": "[3]; 9 mg daily", "value": "no CR or PR has been observed"},
      {"measurement": "adverse event: A-fib", "setting": "[3]; 9 mg daily", "value": 1},
      {"measurement": "adverse event: anxiety/emotional changes", "setting": "[3]; 9 mg daily", "value": 5},
      {"measurement": "adverse event: arthralgia", "setting": "[3]; 9 mg daily", "value": 6},
      {"measurement": "adverse event: bloating", "setting": "[3]; 9 mg daily", "value": 2},
      {"measurement": "adverse event: bruising", "setting": "[3]; 9 mg daily", "value": 1},
      {"measurement": "adverse event: cellulitis", "setting": "[3]; 9 mg daily", "value": 1},
      {"measurement": "adverse event: chills", "setting": "[3]; 9 mg daily", "value": 1},
      {"measurement": "adverse event: constipation", "setting": "[3]; 9 mg daily", "value": 2},
      {"measurement": "adverse event: cough", "setting": "[3]; 9 mg daily", "value": 1},
      {"measurement": "adverse event: dehydration", "setting": "[3]; 9 mg daily", "value": 1},
      {"measurement": "adverse event: diarrhea", "setting": "[3]; 9 mg daily", "value": 3},
      {"measurement": "adverse event: dizziness", "setting": "[3]; 9 mg daily", "value": 2},
      {"measurement": "adverse event: dysgeusia", "setting": "[3]; 9 mg daily", "value": 1},
      {"measurement": "adverse event: dyspepsia", "setting": "[3]; 9 mg daily", "value": 1},
      {"measurement": "adverse event: dyspnea", "setting": "[3]; 9 mg daily", "value": 3},
      {"measurement": "adverse event: edema", "setting": "[3]; 9 mg daily", "value": 2},
      {"measurement": "adverse event: fatigue", "setting": "[3]; 9 mg daily", "value": 14},
      {"measurement": "adverse event: fever", "setting": "[3]; 9 mg daily", "value": 1},
      {"measurement": "adverse event: flatulence", "setting": "[3]; 9 mg daily", "value": 1},
      {"measurement": "adverse event: glaucoma", "setting": "[3]; 9 mg daily", "value": 1},
      {"measurement": "adverse event: headache", "setting": "[3]; 9 mg daily", "value": 4},
      {"measurement": "adverse event: hot flash night sweats", "setting": "[3]; 9 mg daily", "value": 7},
      {"measurement": "adverse event: hypertension", "setting": "[3]; 9 mg daily", "value": 2},
      {"measurement": "adverse event: infection", "setting": "[3]; 9 mg daily", "value": 1},
      {"measurement": "adverse event: insomnia", "setting": "[3]; 9 mg daily", "value": 2},
      {"measurement": "adverse event: myalgia", "setting": "[3]; 9 mg daily", "value": 5},
      {"measurement": "adverse event: nail discoloration", "setting": "[3]; 9 mg daily", "value": 1},
      {"measurement": "adverse event: nausea", "setting": "[3]; 9 mg daily", "value": 11},
      {"measurement": "adverse event: pain", "setting": "[3]; 9 mg daily", "value": 22},
      {"measurement": "adverse event: paresthesia", "setting": "[3]; 9 mg daily", "value": 1},
      {"measurement": "adverse event: pleural effusion", "setting": "[3]; 9 mg daily", "value": 1},
      {"measurement": "adverse event: polyuria", "setting": "[3]; 9 mg daily", "value": 1},
      {"measurement": "adverse event: post menopausal bleeding", "setting": "[3]; 9 mg daily", "value": 3},
      {"measurement": "adverse event: stiffness", "setting": "[3]; 9 mg daily", "value": 1},
      {"measurement": "adverse event: tendonitis", "setting": "[3]; 9 mg daily", "value": 1},
      {"measurement": "adverse event: vision changes", "setting": "[3]; 9 mg daily", "value": 3},
      {"measurement": "adverse event: vomiting", "setting": "[3]; 9 mg daily", "value": 2},
      {"measurement": "adverse event: weight gain", "setting": "[3]; 9 mg daily", "value": 2},
      {"measurement": "adverse event: weight loss", "setting": "[3]; 9 mg daily", "value": 2},
      {"measurement": "duration of stable disease, one ongoing subject", "setting": "[3]; 9 mg daily", "value": "> 336", "unit": "days"},
      {"measurement": "liver enzymes (ALT, AST and bilirubin)", "setting": "[3]; 9 mg daily", "value": "returned to baseline"},
      {"measurement": "median duration of SD as best response", "setting": "[3]; 9 mg daily", "value": 212, "unit": "days"},
      {"measurement": "median time to PD", "setting": "[3]; 9 mg daily", "value": 80, "unit": "days"},
      {"measurement": "patients who reached 6 m that are AR-positive with SD and increased PSA", "setting": "[3]; 9 mg daily", "value": "six"},
      {"measurement": "patients with increased PSA levels", "setting": "[3]; 9 mg daily", "value": "20 of the 22"},
      {"measurement": "subjects with progressive disease at 6 months or prior", "setting": "[3]; 9 mg daily", "value": "N = 12"},
      {"measurement": "tolerability", "setting": "[3]; 9 mg daily", "value": "well-tolerated"},
      {"measurement": "patients with PD (current disposition)", "setting": "[3]; 9 mg daily, 22 patients", "value": 15},
      {"measurement": "patients with SD (current disposition)", "setting": "[3]; 9 mg daily, 22 patients", "value": 4},
      {"measurement": "subjects achieving CB as best response", "setting": "[3]; 9 mg daily, all subjects", "value": 41, "unit": "%"},
      {"measurement": "Current Disposition", "setting": "[3]; [4]", "value": "D/C (2×) and Deceased (4×)"},
      {"measurement": "Day 84 RECIST", "setting": "[3]; [4]", "value": "D/C SAE and PD SAE and D/C"},
      {"measurement": "MAX PSA F/U", "setting": "[3]; [4]", "value": "2.430 and 0.058 and 0.008 and <0.007 and 0.078 and 0.217 and 9.610 and 0.450 and 3.540 and 0.238 and 8.180 and 0.548 and 0.062 and 0.024 and 13.160 and 0.069 and 0.031 and 0.795 and 0.301 and 0.028 and 0.046 and 0.092"},
      {"measurement": "tolerability", "setting": "[3]; 9 mg daily, listed as Enobosarm", "value": "well tolerated"},
      {"measurement": "tumor regression in one subject with SD", "setting": "[3]; 9 mg daily, single target lesion", "value": 27, "unit": "%"},
      {"measurement": "6-month Kaplan-Meier estimate for radiographic progression free survival", "setting": "[3]; 9 mg oral daily", "value": 43.8, "unit": "%"},
      {"measurement": "clinical benefit rate at 6 months", "setting": "[3]; 9 mg oral daily", "value": 35.3, "unit": "%"},
      {"measurement": "Progression free probability", "setting": "[3]; Day 84", "value": 57.5, "unit": "%"},
      {"measurement": "Progression free probability", "setting": "[3]; Day 168", "value": 50.5, "unit": "%"},
      {"measurement": "time to progression (TTP)", "setting": "[3]; seven subjects who achieved CB at six months", "value": 10.2, "unit": "months"}
    ]}
  ]
}
